{
  "source": "patent US20100041615A1",
  "about": "(Medac Gesellschaft Fur Klinische Spezialpraparate MBH, priority 2006, published 2010)",
  "key": {"human plasma plasmin [1]": {"system": "human plasma plasmin", "test": "human plasma plasmin (370 mU) in buffer (4 mM sodium phosphate, 150 mM NaCl, pH 7.4)", "details": "37° C., up to 20 hours"}, "[2]": {"test": "OVCAR-3 tumor homogenate (homogenate of a human ovarian xenograft)", "details": "human ovarian xenograft (OVCAR-3), 37° C., up to four hours"}, "human cathepsin B": {"system": "human cathepsin B", "test": "human cathepsin B (2.1 U) in buffer (50 mM sodium acetate, 100 mM NaCl, 4 mM EDTA*2 Na, 8 mM L-cysteine, pH 5.0)", "details": "37° C., up to 24 hours"}, "[3]": {"system": "OVCAR-3 (ovarian carcinoma growing subcutaneously)", "test": "In vivo tumor-inhibiting properties, OVCAR-3 model", "design": "species or system nude mice NMRI", "details": "i.v. day 7, 14, 21, 28; dosage [mg/Kg] MTX equivalents: MTX 4 × 100, AW054-EMC 4 × 15, C175 3 × 15", "experimental": "Animals: nude mice NMRI; tumor model: OVCAR-3 (ovarian carcinoma growing subcutaneously) Therapy: day 7, 14, 21, 28; i. v. (10 mM sodium phosphate/5% D-glucose buffer pH 6.4); dosages relate to methotrexate equivalents."}, "[4]": {"system": "collagen-induced arthritis model", "test": "In vivo antirheumatic properties, collagen-induced arthritis model, therapy day 30-48", "design": "species or system mice (m, DBA/1)", "details": "i.v. day 30, 34, 37, 41, 44, 48; dosage [mg/Kg] MTX equivalents: MTX 6 × 35, AW054-EMC 6 × 20", "experimental": "Animals: mice (m, DBA/1; model: collagen-induced arthritis model) Therapy: day 30, 34, 37, 41, 44, 48; i. v. (10 mM sodium phosphate/5% D-glucose buffer pH 6.4); dosages relate to methotrexate equivalents."}, "[5]": {"format": "in vitro ADME, human", "experimental": "Preparation of the Tumor Homogenate: The Tumor Material is Comminuted by Means of a scalpel, and 200 mg of the mass are homogenized in a shaker with 800 μL buffer (Tris-buffer pH 7.4) with addition of 3-4 glass beads. Subsequently, centrifugation is carried out at 4° C. and the supernatant is aliquoted to 200 μL.\nNow, 100 μL of the solution of the albumin conjugate EMC-D-Ala-Phe-Lys-Lys(γ-MTX)-OH described in Example 4 are diluted with 500 μL of a homogenate solution (homogenate, 1:2 diluted with buffer [4 mM sodium phosphate, 150 mM NaCl, pH 7.4]) and incubated at 37° C. The determination of the cleavage products is performed with the HPLC method described in Example 2 (FIG. 7)."}, "human plasma plasmin [6]": {"target": "human plasma plasmin (Homo sapiens, UniProt P00747)", "sequence (P00747 581-810 limits assumed)": "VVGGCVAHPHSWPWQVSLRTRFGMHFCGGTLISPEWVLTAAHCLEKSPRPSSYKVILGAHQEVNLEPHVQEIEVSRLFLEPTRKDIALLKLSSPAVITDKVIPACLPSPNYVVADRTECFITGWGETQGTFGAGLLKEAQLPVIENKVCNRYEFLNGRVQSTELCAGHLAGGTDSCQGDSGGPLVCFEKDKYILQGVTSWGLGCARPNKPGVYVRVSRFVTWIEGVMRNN", "sequence (P00747 98-580 partner limits assumed)": "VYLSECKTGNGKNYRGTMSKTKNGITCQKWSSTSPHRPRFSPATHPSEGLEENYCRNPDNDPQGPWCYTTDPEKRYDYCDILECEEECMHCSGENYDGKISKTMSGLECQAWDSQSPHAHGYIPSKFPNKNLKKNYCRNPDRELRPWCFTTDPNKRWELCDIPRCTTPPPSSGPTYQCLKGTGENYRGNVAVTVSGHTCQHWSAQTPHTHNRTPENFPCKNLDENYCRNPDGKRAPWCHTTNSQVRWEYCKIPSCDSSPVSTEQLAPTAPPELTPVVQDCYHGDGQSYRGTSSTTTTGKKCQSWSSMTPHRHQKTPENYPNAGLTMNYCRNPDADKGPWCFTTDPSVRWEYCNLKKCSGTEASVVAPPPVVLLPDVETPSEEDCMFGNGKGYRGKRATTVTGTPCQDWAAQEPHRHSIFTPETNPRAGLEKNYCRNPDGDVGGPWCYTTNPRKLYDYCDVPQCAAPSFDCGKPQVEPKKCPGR", "format": "biochemical", "details": "pH 7.4", "experimental": "Preparation of the albumin conjugate: 4.00 mg of EMC-D-Ala-Phe-Lys-Lys(γ-MTX)-OH are dissolved in 8 mL of a 5% HSA solution (Octopharm) at room temperature and shaken at 37° C. for 2 hours. Subsequently, the sample is brought to a concentration of 700 μM by concentration with Centriprep® disposable concentrators.\nCleavage by plasmin: Now, 100 μL of the solution of the albumin conjugate are diluted with 500 μL buffer (4 mM sodium phosphate, 150 mM NaCl, pH 7.4), 20 μL of human plasma plasmin (370 mU) are added and the mixture is incubated at 37° C. The determination of the cleavage products is performed with the HPLC method described in Example 2 (FIGS. 3 and 4)."}, "human blood plasma": {"test": "human blood plasma", "details": "37° C., up to 24 hours"}, "HSA": {"target": "HSA (Homo sapiens, UniProt P02768)", "sequence (P02768 25-609)": "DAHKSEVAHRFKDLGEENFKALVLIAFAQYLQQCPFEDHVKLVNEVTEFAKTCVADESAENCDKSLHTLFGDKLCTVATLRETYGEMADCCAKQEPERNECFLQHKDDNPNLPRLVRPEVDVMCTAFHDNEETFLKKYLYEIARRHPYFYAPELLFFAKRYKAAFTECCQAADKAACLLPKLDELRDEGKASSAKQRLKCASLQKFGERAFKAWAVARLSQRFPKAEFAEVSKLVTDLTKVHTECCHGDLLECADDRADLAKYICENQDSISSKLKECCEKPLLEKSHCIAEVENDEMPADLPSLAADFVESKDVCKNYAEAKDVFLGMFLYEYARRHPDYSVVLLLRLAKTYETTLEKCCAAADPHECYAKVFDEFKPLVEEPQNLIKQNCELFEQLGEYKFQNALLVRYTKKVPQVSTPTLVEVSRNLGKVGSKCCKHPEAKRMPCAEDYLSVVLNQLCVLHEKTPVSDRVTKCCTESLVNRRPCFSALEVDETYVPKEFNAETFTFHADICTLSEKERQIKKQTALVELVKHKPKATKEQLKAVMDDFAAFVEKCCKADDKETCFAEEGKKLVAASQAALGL", "test": "Bonding to HSA in human plasma (C18-RP-HPLC)"}, "[7]": {"system": "collagen-induced arthritis model", "test": "Collagen-induced arthritis model, therapy twice a week as of day 14, 42 or 30 (Table 1: early treatment protocol)", "format": "in vivo, mice (m, DBA/1)", "details": "35 mg/kg, n = 15, early treatment protocol", "experimental": "Animals: mice (m, DBA/1; model: collagen-induced arthritis model) Therapy: twice a week as of day 14, 42 and 30, respectively; i. v. (10 mM sodium phosphate/5% D-glucose buffer pH 6.4); dosages relate to methotrexate equivalents."}, "[8]": {"test": "synovial fluid of six patients suffering from rheumatoid arthritis", "details": "human (patients suffering from rheumatoid arthritis), 37° C., up to four hours"}, "[9]": {"test": "Cleavage experiments of the albumin conjugates, summary of the examples", "format": "in vitro ADME", "details": "after cleavage of the albumin conjugates", "experimental": "It becomes evident from the examples that after incubation with human blood plasma, the corresponding albumin conjugate is substantially formed already after 2 min. […] The cleavage results in the formation of e.g. H-Lys(γ-MTX)-OH, which constitutes the only low-molecular cleavage product. […] In the case of the collagen-induced arthritis model, it is about 20% of the corresponding methotrexate equivalent dosage."}},
  "note": "Starred links: 1 amine or outer side, 2 acyl side, 3 side chain; linkers in the order of their positions; H or OH if unused. Non-standard residues stand in square brackets, D forms with d. Residues, ends and D or L forms follow the SMILES beside them. Groups on a side chain read outwards from the residue. *: point of attachment. γ‑MTX = gamma-methotrexate, CN(Cc1cnc2nc(N)nc(N)c2n1)c1ccc(C(=O)N[C@@H](CCC(=O)*)C(=O)O)cc1; DAMPA = CN(Cc1cnc2nc(N)nc(N)c2n1)c1ccc(C(=O)*)cc1; Hexanoyl(6-maleimido) = O=C1C=CC(=O)N1CCCCCC(=O)*; γGlu = O=C(O)[C@H](CCC(=O)[*:2])N[*:1]",
  "data": [
    {"compound": "HSA-EMC-D-Ala-Phe-Lys-Lys(γ-MTX)-OH", "values": [
      {"measurement": "cleaved bond", "setting": "human plasma plasmin [1]", "value": "Lys-Lys, one and four hours, respectively"},
      {"measurement": "fragment found", "setting": "[2]", "value": "H-Lys(γ-MTX)-OH, four hours"},
      {"measurement": "cleaved bond", "setting": "human cathepsin B", "value": "Lys-Lys, one and four hours, respectively"}
    ]},
    {"compound": "C[C@@H](NC(=O)CCCCCN1C(=O)C=CC1=O)C(=O)N[C@@H](Cc1ccccc1)C(=O)N[C@@H](CCCCN)C(=O)N[C@@H](CCCCNC(=O)CC[C@H](NC(=O)c1ccc(N(C)Cc2cnc3nc(N)nc(N)c3n2)cc1)C(=O)O)C(=O)O", "note": "[AW054-EMC, EMC-D-Ala-Phe-Lys-Lys(γ-MTX)-OH] ({Hexanoyl(6-maleimido)}-[dA]FKK([γGlu-DAMPA])-OH)", "values": [
      {"measurement": "change of body weight [%]", "setting": "[3]", "value": "+12%"},
      {"measurement": "change of body weight [%]", "setting": "[4]", "value": "−0.2", "unit": "%"}
    ]},
    {"compound": "HSA-EMC-D-Ala-Phe-Lys-Lys(γ-MTX)-OH ({HSA-Hexanoyl(6-maleimido)}-[dA]FKK(γ‑MTX)-OH)", "values": [
      {"measurement": "cleavage in OVCAR-3 tumor homogenate", "setting": "[5]", "value": "formation of H-Lys(γ-MTX)-OH as a cleavage product can be observed"},
      {"measurement": "cleavage by plasmin", "setting": "human plasma plasmin [6]", "value": "formation of H-Lys(γ-MTX)-OH as a cleavage product"}
    ]},
    {"compound": "CSCC[C@H](NC(=O)[C@H](C)NC(=O)[C@H](CCCNC(=N)N)NC(=O)[C@H](CCCNC(=N)N)NC(=O)CCCCCN1C(=O)C=CC1=O)C(=O)N[C@@H](CCCCNC(=O)CC[C@H](NC(=O)c1ccc(N(C)Cc2cnc3nc(N)nc(N)c3n2)cc1)C(=O)O)C(=O)O", "note": "[C175, EMC-Arg-Arg-Ala-Met-Lys(γ-MTX)-OH] ({Hexanoyl(6-maleimido)}-RRAMK([γGlu-DAMPA])-OH)", "values": [
      {"measurement": "change of body weight [%]", "setting": "[3]", "value": "+7%"}
    ]},
    {"compound": "EMC-D-Ala-Phe-Lys-Lys(γ-MTX)-OH ({Hexanoyl(6-maleimido)}-[dA]FKK([γGlu-DAMPA])-OH; SMILES C[C@@H](NC(=O)CCCCCN1C(=O)C=CC1=O)C(=O)N[C@@H](Cc1ccccc1)C(=O)N[C@@H](CCCCN)C(=O)N[C@@H](CCCCNC(=O)CC[C@H](NC(=O)c1ccc(N(C)Cc2cnc3nc(N)nc(N)c3n2)cc1)C(=O)O)C(=O)O)", "values": [
      {"measurement": "not cleaved", "setting": "human blood plasma", "value": "loss of MTX is less than 10% after 24 hours"}
    ]},
    {"compound": "CSCC[C@H](NC(=O)[C@H](Cc1ccccc1)NC(=O)[C@H](C)NC(=O)[C@H](CCCNC(=N)N)NC(=O)CCCCCN1C(=O)C=CC1=O)C(=O)N[C@@H](CCCCNC(=O)CC[C@H](NC(=O)c1ccc(N(C)Cc2cnc3nc(N)nc(N)c3n2)cc1)C(=O)O)C(=O)O", "note": "[C162, EMC-Arg-Ala-Phe-Met-Lys(γ-MTX)-OH] ({Hexanoyl(6-maleimido)}-RAFMK([γGlu-DAMPA])-OH)", "values": [
      {"measurement": "bonding of the prodrug to HSA (albumin) in human plasma", "setting": "HSA; 200 μM, 2 min incubation with human blood plasma at 37° C., HPLC detection at 300 or 370 nm", "value": "almost complete decrease of the prodrug peak"},
      {"measurement": "bonding of the prodrug to albumin in plasma with blocked cysteine-34-group", "setting": "HSA; human blood plasma incubated with EMC (1000 μM) in advance, detection 370 nm", "value": "does not show a bonding of the prodrug to albumin"}
    ]},
    {"compound": "CN(Cc1cnc2nc(N)nc(N)c2n1)c1ccc(C(=O)N[C@@H](CCC(=O)O)C(=O)O)cc1", "note": "[MTX, Methotrexate]", "values": [
      {"measurement": "improved or achieved abatement after created disease, figure in parentheses (share of animals)", "setting": "[7]", "value": "(53)"},
      {"measurement": "improved or achieved abatement after created disease, number of animals", "setting": "[7]", "value": 8},
      {"measurement": "mean arthritis score at the end of the test", "setting": "[7]", "value": 3.1},
      {"measurement": "mean period of time until breakout of renewed arthritis after beginning of treatment", "setting": "[7]", "value": 17.3, "unit": "days"},
      {"measurement": "occurrence of arthritis at the end of the test (%)", "setting": "[7]", "value": "(60) %"},
      {"measurement": "occurrence of arthritis at the end of the test, number of animals", "setting": "[7]", "value": 9},
      {"measurement": "T/C [%] maximum", "setting": "[3]", "value": 69, "unit": "%"},
      {"measurement": "change of body weight [%]", "setting": "[3]", "value": "+19%"},
      {"measurement": "RA score Tag 55", "setting": "[4]", "value": 8.30},
      {"measurement": "change of body weight [%]", "setting": "[4]", "value": "+6.9%"}
    ]},
    {"compound": "EMC-Arg-Ala-Phe-Met-Lys(γ-MTX)-OH", "values": [
      {"measurement": "fragment found", "setting": "[8]", "value": "H-Lys(γ-MTX)-OH, four hours"}
    ]},
    {"compound": "CN(Cc1cnc2nc(N)nc(N)c2n1)c1ccc(C(=O)NC(CCC(=O)NCCCCC(N)C(=O)O)C(=O)O)cc1", "note": "(centres unmarked) [H-Lys(γ-MTX)-OH]", "values": [
      {"measurement": "further cleavage of the cleavage product into MTX and lysine", "setting": "[9]", "value": "not cleaved into MTX and lysine any more"}
    ]}
  ]
}
